Measurements as given in patent US9738639B2, “Pyrroloquinoline quinone lithium salt crystal and preparation method and application thereof” (SHANGHAI RI XIN BIOTECHNOLOGY CO., LTD., priority 2013, dated 2017).

Assays:
[1] = system: APP/PS1 transgenic mice; experiment: Morris water maze probe test in APP/PS1 transgenic mice; type: in vivo; conditions: for Adjusted average distance of approaching to platform / Swimming path, I quadrant occupancy of platform / first time of crossing platform / time spent of IV quadrant / time, I quadrant occupancy of platform / times of crossing platform: probe test on 5th day, n = 10
Protocol: 1. […] 2. APP/PS1 transgenic mice (Model Animal Research Center of Nanjing University, weights of mice are from 30 g to 40 g, male, totally 60 mice). Sixty mice are randomized to six groups (group 2 to group 7) with ten mice for each group. […] group: 0.15 mg/mL […] solution is obtained by grinding one tablet (5 mg) of […] into powder, followed by dissolved in 0.5% CMC (carboxymethylcellulose). Morris water maze (Experimental video analysis system of Morris water maze, JLBehv-MWMG, Shanghai Jiliang Technology Co., Ltd) Group 1 and group 2 are daily administrated by normal saline and group 3 to group 7 are daily administrated by drug solutions prepared above, with the dosage of 1 mL/100 g/day for continuous one month. From the fifth week, mice are training in Morris water maze, 30 minutes after drug administration. The training session lasts for 4 days. The probe test performed on the 5th day. The Morris water maze statistics software is used to automatically record and analyze the swimming trace in the quadrant, time spent and path in target or opposite quadrant occupancy and times of crossing platform. The data is indicated as average±standard deviation (x±SD). The analysis of variance for a single factor is used for data difference statistics. Difference between groups is determined by P<0.05.

[2] = Hygroscopicity by dynamic vapor sorption (DVS) analysis; type: physicochemical; conditions: for hygroscopicity: DVS
Protocol: Dynamic Vapor Sorption (DVS) curves of the polymorphs are measured on SMS DVS Intrinsic at 0-95% RH and 25° C.
The compound stably exists as a nonahydrate by dynamic vapor sorption analysis. It forms monohydrate under the scope of relative humidity (RH) from 20% to 50%. It forms dihydrate under the scope of relative humidity (RH) from 70% to 100%. It could forms polyhydrate with further increased relative humidity (RH).
Under the scope of relative humidity (RH) from 5% to 95%, the hygroscopicity of the intermediate A of pyrroloquinoline quinine lithium salt and the crystalline form B of pyrroloquinoline quinine lithium salt from example 1 is measured by dynamic vapor sorption analysis. […] The crystalline solid is not good. The hygroscopicity of the crystalline form B of pyrroloquinoline quinine lithium salt is 8.4% and 13.9% under the relative humidity (RH) of 65% and 80%, respectively. […] The crystalline solid is not good.

[3] = system: glycogen synthase kinase-3 (GSK-3); conditions: background statement, no data; cited from earlier work
[4] = 0.375 mg/kg daily for one month

O=C([O-])c1cc(C(=O)[O-])c2c(n1)C(=O)C(=O)c1cc(C(=O)[O-])[nH]c1-2.[Li+].[Li+].[Li+] [PQQ-Li, trilithium derivative of pyrroloquinoline quinine]
Adjusted average distance of approaching to platform [1, 4]: 762.6 mm
Swimming path, I quadrant occupancy of platform [1, 4]: 961.6 mm
first time of crossing platform [1, 4]: 44.9 s
time spent of IV quadrant [1, 4]: 12.4 s
time, I quadrant occupancy of platform [1, 4]: 2.8 s
times of crossing platform [1, 4]: 0.8
Adjusted average distance of approaching to platform ([1]; 0.75 mg/kg daily for one month): 674.9 mm
Swimming path, I quadrant occupancy of platform ([1]; 0.75 mg/kg daily for one month): 2029.9 mm
first time of crossing platform ([1]; 0.75 mg/kg daily for one month): 31.3 s
time spent of IV quadrant ([1]; 0.75 mg/kg daily for one month): 15.8 s
time, I quadrant occupancy of platform ([1]; 0.75 mg/kg daily for one month): 6.4 s
times of crossing platform ([1]; 0.75 mg/kg daily for one month): 1.6
Adjusted average distance of approaching to platform ([1]; 1.5 mg/kg daily for one month): 605.6 mm
Swimming path, I quadrant occupancy of platform ([1]; 1.5 mg/kg daily for one month): 2653.3 mm
first time of crossing platform ([1]; 1.5 mg/kg daily for one month): 22.7 s
time spent of IV quadrant ([1]; 1.5 mg/kg daily for one month): 17.7 s
time, I quadrant occupancy of platform ([1]; 1.5 mg/kg daily for one month): 8.9 s
times of crossing platform ([1]; 1.5 mg/kg daily for one month): 2.2
Adjusted average distance of approaching to platform ([1]; 3 mg/kg daily for one month): 572.5 mm
Swimming path, I quadrant occupancy of platform ([1]; 3 mg/kg daily for one month): 2636.1 mm
first time of crossing platform ([1]; 3 mg/kg daily for one month): 21.8 s
time spent of IV quadrant ([1]; 3 mg/kg daily for one month): 19.5 s
time, I quadrant occupancy of platform ([1]; 3 mg/kg daily for one month): 9.2 s
times of crossing platform ([1]; 3 mg/kg daily for one month): 2.3
dose dependence of effects in Morris water maze test ([1]; APP/PS1 transgenic mice, 0.375-3 mg/kg): good dose-dependent effects
effect on spatial memory and cognitive impairment ([1]; APP/PS1 transgenic mice, Morris water maze test): significantly improved spatial memory and cognitive impairment
hydrate form in which the compound stably exists ([2]; dynamic vapor sorption analysis): nonahydrate
hygroscopicity variety under the normal moist environment for storage ([2]; listed as crystalline form B of pyrroloquinoline quinine lithium salt): 5-10%
hydrate form ([2]; relative humidity (RH) from 20% to 50%): monohydrate
hydrate form ([2]; relative humidity (RH) from 70% to 100%): dihydrate
hygroscopicity ([2]; relative humidity (RH) of 65%, listed as crystalline form B of pyrroloquinoline quinine lithium salt): 8.4%
hygroscopicity ([2]; relative humidity (RH) of 80%, listed as crystalline form B of pyrroloquinoline quinine lithium salt): 13.9%

O=C([O-])c1cc(C(=O)[O-])c2c(n1)C(=O)C(=O)c1cc(C(=O)[O-])[nH]c1-2.[Li+].[Li+].[Li+] [Pyrroloquinoline quinine lithium salt, trilithium derivative of pyrroloquinoline quinine]
effect on glycogen synthase kinase-3 activities (GSK-3) [3]: suppress the glycogen synthase kinase-3 activities

COc1cc2c(cc1OC)C(=O)C(CC1CCN(Cc3ccccc3)CC1)C2 (stereo not shown) [Aricept, reference compound]
Adjusted average distance of approaching to platform ([1]; 1.5 mg/kg daily for one month): 582.7 mm
Swimming path, I quadrant occupancy of platform ([1]; 1.5 mg/kg daily for one month): 2730.8 mm
first time of crossing platform ([1]; 1.5 mg/kg daily for one month): 30.7 s
time spent of IV quadrant ([1]; 1.5 mg/kg daily for one month): 21.7 s
time, I quadrant occupancy of platform ([1]; 1.5 mg/kg daily for one month): 9.3 s
times of crossing platform ([1]; 1.5 mg/kg daily for one month): 1.6

O=C([O-])c1cc(C(=O)[O-])c2c(n1)C(=O)C(=O)c1cc(C(=O)[O-])[nH]c1-2.[Li+].[Li+].[Li+] [trilithium derivative of pyrroloquinoline quinine, reference compound]
crystalline solid (assessment in words) ([2]; after the hygroscopicity comparison): not good
hygroscopicity variety under the normal moist environment for storage [2]: 5-25%
hygroscopicity ([2]; relative humidity (RH) of 65%): 25.3%
hygroscopicity ([2]; relative humidity (RH) of 80%): 32.6%
